The target of assay [1] is T1, Ephrin type-B receptor 4 (Homo sapiens) (UniProt P54760).
T1 sequence (whole entry): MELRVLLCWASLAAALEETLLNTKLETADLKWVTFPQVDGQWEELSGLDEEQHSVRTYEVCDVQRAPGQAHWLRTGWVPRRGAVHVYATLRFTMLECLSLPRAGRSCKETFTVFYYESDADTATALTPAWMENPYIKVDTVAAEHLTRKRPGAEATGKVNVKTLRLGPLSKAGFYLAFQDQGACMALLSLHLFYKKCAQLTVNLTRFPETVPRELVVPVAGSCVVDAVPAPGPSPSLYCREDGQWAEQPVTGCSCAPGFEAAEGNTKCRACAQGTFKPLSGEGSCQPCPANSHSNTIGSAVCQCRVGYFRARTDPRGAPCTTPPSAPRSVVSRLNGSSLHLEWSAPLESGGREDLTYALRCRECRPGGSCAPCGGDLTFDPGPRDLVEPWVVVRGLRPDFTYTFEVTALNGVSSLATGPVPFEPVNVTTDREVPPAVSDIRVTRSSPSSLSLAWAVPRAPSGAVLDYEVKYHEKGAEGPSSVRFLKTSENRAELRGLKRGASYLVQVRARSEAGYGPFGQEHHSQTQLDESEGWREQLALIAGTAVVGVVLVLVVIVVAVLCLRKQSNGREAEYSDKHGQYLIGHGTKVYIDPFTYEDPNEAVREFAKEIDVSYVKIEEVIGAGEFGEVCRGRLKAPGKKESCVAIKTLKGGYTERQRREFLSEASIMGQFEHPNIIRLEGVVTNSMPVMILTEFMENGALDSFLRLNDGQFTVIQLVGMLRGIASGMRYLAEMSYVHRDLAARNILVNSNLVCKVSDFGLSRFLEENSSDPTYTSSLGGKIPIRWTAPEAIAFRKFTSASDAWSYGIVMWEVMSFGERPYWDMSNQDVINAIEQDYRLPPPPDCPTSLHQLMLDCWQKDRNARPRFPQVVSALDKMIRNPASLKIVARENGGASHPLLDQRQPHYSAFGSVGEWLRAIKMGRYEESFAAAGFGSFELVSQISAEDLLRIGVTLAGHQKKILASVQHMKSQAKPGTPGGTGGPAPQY
Kind of assay: Inhibition of human recombinant EphB4 at 40 nM in presence of ATP by radiometric assay relative to control.

Assay [2] has as its target Homeodomain-interacting protein kinase 1 (Homo sapiens) (UniProt Q86Z02). Kind of assay: Inhibition of human recombinant HIPK1 at 40 nM in presence of ATP by radiometric assay relative to control.
For a further assay, the species on record is Homo sapiens. Kind of assay: Inhibition of human recombinant KHS1 at 40 nM in presence of ATP by radiometric assay relative to control.
For assay [3], the target named is Serine/threonine-protein kinase WNK1 (Homo sapiens) (UniProt Q9H4A3). Kind of assay: Inhibition of human recombinant Wnk1 at 40 nM in presence of ATP by radiometric assay relative to control.
In assay [4] the target is Homeodomain-interacting protein kinase 3 (Homo sapiens) (UniProt Q9H422). Kind of assay: Inhibition of human recombinant HIPK3 at 40 nM related to control ULK1.
Assay [5] concerns the target Dual specificity mitogen-activated protein kinase kinase 2 (Homo sapiens) (UniProt P36507). Kind of assay: Inhibition of human recombinant MAP2K2 at 40 nM related to control ULK1.
Assay [6] has as its target Serine/threonine-protein kinase 33 (Homo sapiens) (UniProt Q9BYT3). Kind of assay: Inhibition of human recombinant STK33 at 40 nM related to control ULK1.
The target of assay [7] is Tyrosine-protein kinase Lyn (Homo sapiens) (UniProt P07948). Kind of assay: Inhibition of human recombinant LYN at 500 nM in presence of ATP by radiometric assay relative to control.
For assay [8], the target named is Mitogen-activated protein kinase 14 (Homo sapiens) (UniProt Q16539). Kind of assay: Inhibition of human recombinant p38alpha at 500 nM in presence of ATP by radiometric assay relative to control.
Assay [9] deals with Ribosomal protein S6 kinase alpha-6 (Homo sapiens) (UniProt Q9UK32). Nature of the assay: Inhibition of human recombinant RSK4 at 500 nM in presence of ATP by radiometric assay relative to control.
Assay [10] addresses T2, Testis-specific serine/threonine-protein kinase 4 (Homo sapiens) (UniProt Q6SA08).
T2 sequence (whole entry): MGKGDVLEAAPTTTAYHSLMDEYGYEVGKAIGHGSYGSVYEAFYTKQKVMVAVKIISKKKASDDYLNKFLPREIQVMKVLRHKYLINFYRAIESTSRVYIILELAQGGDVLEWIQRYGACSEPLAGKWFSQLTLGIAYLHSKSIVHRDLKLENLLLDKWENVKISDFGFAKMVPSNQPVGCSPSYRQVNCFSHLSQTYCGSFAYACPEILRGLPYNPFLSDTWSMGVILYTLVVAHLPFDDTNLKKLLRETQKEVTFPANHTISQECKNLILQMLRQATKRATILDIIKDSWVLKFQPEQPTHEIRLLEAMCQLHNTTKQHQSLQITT
Nature of the assay: Inhibition of human recombinant TSSK4 at 500 nM in presence of ATP by radiometric assay relative to control.

Assay [11] addresses Tyrosine-protein kinase CSK (Homo sapiens) (UniProt P41240). Kind of assay: Inhibition of human recombinant CSK at 500 nM related to control ULK1.
The target in assay [12] is Serine/threonine-protein kinase MRCK beta (Homo sapiens) (UniProt Q9Y5S2). Nature of the assay: Inhibition of human recombinant MRCKb at 500 nM related to control ULK1.
Assay [13] concerns the target Serine/threonine-protein kinase PLK3 (Homo sapiens) (UniProt Q9H4B4). Nature of the assay: Inhibition of human recombinant PLK3 at 500 nM related to control ULK1.
The target in assay [14] is Fibroblast growth factor receptor 2 (Homo sapiens) (UniProt P21802). Kind of assay: Inhibition of human recombinant FGFR2 at 15 nM in presence of ATP by radiometric assay relative to control.
Assay [15] addresses Mitogen-activated protein kinase 9 (Homo sapiens) (UniProt P45984). Nature of the assay: Inhibition of human recombinant JNK2 at 15 nM in presence of ATP by radiometric assay relative to control.
The target of assay [16] is SRSF protein kinase 2 (Homo sapiens) (UniProt P78362). Kind of assay: Inhibition of human recombinant SRPK2 at 15 nM in presence of ATP by radiometric assay relative to control.
SRSF protein kinase 2 (Homo sapiens), sequence (P78362 whole entry, looked up): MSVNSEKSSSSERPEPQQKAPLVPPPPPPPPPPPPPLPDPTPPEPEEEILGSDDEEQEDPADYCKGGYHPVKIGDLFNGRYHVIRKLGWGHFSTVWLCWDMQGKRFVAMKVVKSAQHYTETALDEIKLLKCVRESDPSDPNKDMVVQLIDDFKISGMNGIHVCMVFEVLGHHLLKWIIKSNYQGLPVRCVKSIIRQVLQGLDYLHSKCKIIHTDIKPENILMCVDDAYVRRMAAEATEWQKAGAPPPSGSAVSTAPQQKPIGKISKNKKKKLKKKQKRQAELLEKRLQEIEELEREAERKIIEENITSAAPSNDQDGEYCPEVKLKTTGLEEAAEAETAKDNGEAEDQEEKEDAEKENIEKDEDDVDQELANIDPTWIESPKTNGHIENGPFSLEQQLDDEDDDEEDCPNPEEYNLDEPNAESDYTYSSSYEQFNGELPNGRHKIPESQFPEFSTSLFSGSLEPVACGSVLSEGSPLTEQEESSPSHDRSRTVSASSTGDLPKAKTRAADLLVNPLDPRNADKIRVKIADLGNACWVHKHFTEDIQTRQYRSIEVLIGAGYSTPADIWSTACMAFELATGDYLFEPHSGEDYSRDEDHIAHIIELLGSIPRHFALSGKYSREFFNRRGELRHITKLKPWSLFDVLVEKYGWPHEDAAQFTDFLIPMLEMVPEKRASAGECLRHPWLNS
The target of assay [17] is Calcium/calmodulin-dependent protein kinase type 1 (Homo sapiens) (UniProt Q14012). Nature of the assay: Inhibition of human recombinant CaMK1a at 15 nM related to control ULK1.
Calcium/calmodulin-dependent protein kinase type 1 (Homo sapiens), sequence (Q14012 whole entry, looked up): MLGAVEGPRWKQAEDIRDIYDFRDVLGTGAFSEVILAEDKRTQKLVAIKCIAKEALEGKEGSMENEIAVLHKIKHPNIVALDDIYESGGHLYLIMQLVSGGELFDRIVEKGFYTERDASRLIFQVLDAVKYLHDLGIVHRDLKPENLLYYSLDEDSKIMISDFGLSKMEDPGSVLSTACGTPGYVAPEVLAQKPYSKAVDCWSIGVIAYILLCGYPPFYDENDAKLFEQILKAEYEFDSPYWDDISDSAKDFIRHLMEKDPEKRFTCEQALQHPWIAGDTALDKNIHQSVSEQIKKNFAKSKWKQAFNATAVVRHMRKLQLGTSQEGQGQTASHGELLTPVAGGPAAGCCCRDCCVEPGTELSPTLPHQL
The target of assay [18] is Serine/threonine-protein kinase MARK1 (Homo sapiens) (UniProt Q9P0L2). Kind of assay: Inhibition of human recombinant MARK1 at 15 nM related to control ULK1.
Serine/threonine-protein kinase MARK1 (Homo sapiens), sequence (Q9P0L2 whole entry, looked up): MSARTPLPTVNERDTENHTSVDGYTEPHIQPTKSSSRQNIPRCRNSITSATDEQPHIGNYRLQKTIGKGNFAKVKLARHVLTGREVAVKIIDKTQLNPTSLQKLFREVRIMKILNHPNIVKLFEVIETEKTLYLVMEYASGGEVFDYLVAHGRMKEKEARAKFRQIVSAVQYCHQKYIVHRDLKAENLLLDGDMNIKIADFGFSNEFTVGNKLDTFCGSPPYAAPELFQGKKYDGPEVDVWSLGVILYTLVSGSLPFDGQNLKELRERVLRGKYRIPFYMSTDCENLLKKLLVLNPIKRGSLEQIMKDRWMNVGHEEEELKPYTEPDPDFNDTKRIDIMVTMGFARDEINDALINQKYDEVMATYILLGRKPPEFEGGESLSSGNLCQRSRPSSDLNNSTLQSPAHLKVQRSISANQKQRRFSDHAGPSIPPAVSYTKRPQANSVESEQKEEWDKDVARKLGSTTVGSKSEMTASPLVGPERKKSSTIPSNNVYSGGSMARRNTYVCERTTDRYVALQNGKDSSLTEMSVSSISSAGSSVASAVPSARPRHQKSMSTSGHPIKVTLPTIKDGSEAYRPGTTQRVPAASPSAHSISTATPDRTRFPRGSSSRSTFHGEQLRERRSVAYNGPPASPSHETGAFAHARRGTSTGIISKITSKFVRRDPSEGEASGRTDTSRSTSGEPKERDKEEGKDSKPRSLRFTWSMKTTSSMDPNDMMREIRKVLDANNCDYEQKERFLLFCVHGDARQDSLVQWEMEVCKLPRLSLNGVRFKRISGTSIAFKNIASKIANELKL
Assay [19] concerns the target Protein kinase C theta type (Homo sapiens) (UniProt Q04759). Kind of assay: Inhibition of human recombinant PKCt at 15 nM related to control ULK1.
Assay [20] addresses Serine/threonine-protein kinase PLK3 (Homo sapiens) (UniProt Q9H4B4). Nature of the assay: Inhibition of human recombinant PLK3 at 15 nM related to control ULK1.
For assay [21], the target named is Rhodopsin kinase GRK7 (Homo sapiens) (UniProt Q8WTQ7). Kind of assay: Inhibition of human recombinant GPRK7 at 15 nM related to control ULK1.
Rhodopsin kinase GRK7 (Homo sapiens), sequence (Q8WTQ7 whole entry, looked up): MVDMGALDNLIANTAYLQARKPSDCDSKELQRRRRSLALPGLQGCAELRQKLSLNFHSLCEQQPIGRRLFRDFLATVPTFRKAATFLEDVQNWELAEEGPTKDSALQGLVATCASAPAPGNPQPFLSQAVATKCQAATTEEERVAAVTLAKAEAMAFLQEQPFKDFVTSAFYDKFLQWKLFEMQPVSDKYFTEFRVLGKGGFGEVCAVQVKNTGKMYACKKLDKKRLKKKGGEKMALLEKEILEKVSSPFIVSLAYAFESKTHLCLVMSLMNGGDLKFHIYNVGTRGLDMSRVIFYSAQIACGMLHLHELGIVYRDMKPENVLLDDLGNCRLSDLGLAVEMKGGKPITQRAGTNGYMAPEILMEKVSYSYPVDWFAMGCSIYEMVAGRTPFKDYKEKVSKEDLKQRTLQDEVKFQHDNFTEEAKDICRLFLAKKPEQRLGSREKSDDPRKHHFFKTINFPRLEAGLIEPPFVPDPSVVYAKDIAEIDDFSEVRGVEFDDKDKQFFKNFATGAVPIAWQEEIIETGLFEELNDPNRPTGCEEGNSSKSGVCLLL

What is called inhibition is the drop in the measured response relative to a control, in per cent.

Serine/threonine-protein kinase PLK3 (Homo sapiens), sequence (Q9H4B4 whole entry, looked up): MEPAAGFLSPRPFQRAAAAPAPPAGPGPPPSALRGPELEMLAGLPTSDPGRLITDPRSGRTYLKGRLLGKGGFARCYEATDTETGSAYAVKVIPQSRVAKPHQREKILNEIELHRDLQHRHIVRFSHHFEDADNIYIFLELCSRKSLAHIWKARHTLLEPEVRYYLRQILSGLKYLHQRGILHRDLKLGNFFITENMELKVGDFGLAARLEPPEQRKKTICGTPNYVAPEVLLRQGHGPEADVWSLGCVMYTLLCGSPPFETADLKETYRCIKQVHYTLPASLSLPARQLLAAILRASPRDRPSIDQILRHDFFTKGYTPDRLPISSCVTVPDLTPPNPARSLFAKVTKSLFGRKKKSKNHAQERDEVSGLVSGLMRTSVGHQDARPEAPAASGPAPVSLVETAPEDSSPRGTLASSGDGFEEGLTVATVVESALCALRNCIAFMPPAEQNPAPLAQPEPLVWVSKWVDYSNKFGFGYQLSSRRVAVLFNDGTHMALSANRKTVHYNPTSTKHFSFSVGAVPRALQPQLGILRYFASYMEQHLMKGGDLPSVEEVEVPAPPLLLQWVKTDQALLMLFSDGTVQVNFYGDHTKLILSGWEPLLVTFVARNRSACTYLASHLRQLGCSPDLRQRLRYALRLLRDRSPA
Serine/threonine-protein kinase 33 (Homo sapiens), sequence (Q9BYT3 whole entry, looked up): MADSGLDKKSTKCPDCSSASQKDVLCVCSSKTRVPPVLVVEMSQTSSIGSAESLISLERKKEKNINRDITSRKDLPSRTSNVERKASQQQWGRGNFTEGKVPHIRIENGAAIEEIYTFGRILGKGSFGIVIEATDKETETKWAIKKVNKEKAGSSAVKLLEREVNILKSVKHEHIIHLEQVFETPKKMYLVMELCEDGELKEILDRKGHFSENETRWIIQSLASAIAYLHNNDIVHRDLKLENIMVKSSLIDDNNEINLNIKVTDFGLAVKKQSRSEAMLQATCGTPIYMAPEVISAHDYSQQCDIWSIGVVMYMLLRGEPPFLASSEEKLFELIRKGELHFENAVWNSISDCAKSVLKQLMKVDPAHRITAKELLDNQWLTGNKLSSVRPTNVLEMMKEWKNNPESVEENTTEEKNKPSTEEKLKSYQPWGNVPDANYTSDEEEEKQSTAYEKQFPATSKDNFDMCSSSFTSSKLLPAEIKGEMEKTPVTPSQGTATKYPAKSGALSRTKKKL
Homeodomain-interacting protein kinase 1 (Homo sapiens), sequence (Q86Z02 whole entry, looked up): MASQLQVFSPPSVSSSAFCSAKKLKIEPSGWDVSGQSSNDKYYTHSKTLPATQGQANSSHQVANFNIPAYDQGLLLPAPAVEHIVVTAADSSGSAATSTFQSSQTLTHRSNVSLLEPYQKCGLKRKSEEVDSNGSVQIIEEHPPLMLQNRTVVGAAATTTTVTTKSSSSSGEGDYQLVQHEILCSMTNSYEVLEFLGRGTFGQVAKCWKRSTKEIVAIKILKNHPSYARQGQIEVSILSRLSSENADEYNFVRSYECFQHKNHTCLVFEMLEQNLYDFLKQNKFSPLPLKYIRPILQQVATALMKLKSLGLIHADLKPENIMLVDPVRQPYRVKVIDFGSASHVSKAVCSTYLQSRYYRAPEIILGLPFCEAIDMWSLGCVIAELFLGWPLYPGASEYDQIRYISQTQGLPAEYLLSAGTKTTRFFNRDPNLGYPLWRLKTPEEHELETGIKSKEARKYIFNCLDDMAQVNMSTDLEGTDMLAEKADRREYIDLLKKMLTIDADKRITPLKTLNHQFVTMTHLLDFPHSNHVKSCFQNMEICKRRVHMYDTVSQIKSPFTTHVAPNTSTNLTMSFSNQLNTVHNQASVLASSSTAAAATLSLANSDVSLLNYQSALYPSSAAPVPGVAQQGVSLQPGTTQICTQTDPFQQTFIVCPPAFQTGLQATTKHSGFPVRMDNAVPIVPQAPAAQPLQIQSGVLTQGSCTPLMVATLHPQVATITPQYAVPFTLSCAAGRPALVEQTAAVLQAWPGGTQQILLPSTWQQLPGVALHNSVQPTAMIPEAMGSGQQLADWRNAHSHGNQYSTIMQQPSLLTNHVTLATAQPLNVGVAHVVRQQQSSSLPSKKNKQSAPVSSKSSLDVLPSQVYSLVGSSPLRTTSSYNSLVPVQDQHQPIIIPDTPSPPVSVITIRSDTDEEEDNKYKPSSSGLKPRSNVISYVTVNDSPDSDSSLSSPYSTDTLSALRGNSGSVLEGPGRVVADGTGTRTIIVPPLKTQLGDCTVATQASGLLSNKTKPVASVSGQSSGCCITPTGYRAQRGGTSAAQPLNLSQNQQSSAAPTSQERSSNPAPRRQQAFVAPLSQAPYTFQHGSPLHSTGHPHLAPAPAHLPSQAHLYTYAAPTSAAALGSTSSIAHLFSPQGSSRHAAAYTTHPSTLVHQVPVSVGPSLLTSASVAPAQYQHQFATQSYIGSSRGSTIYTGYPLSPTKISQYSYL

As to `O=C(N[C@@H](C1CC1)C(F)(F)F)c1cc(-c2cnn3cc(-c4ccc(F)cc4)cnc23)cs1`, the inhibition in assay [1] was 0%; in assay [2], 0%; in the assay listed under Homo sapiens, 0%; in [3] it was 12%. The fold change (FC) in assay [4] came out at 0.07; in assay [5] it was 0; in assay [6], 0.26.
For the compound `CNC(=O)c1ccccc1Oc1nc(Nc2cc(OC)c(OC)c(OC)c2)ncc1Br`, the inhibition was 30% in [7], 5% in assay [8], 33% in assay [9] and 0% in [10]. In addition, the fold change (FC) was found to be 0.03 in assay [11], 0 in [12] and 0 in assay [13].
Take `CC(C)[C@H](NC(=O)c1cc(-c2cnn3cc(-c4ccc(OCCN5CCCCC5)cc4)cnc23)cs1)C(F)(F)F`: the inhibition in assay [14], in assay [15] and in assay [16] was 0% each time. Moreover, the fold change (FC) in assay [17] stood at 0.08; in assay [18], 0.61; in assay [19], 0; in assay [20] it was 0.03; in assay [21], 0.

For the origin of these results see ChEMBL document CHEMBL5653631, “A Potent and Selective ULK1 Inhibitor Suppresses Autophagy and Sensitizes Cancer Cells to Nutrient Stress” (iScience, 2018).
